Among the data in patent US7511041B2, “Fused azole-pyrimidine derivatives” (Bayer Pharmaceuticals Corporation, priority 2002, dated 2009) are IC50 and melting point values, retold here.

Some results are limits rather than exact numbers.

The target of data set [1] is T1, Recombinant human PI3Kγ (full length human PI3K p110γ) (Homo sapiens, UniProt P48736).
T1 construct: full length human PI3K p110γ fused with a His6-tag at the C-terminus; His6 (C); purchased ALEXIS BIOCHEMICALS #201-055-C010; host or cells: S. frugiperda 9 insect cells
In words: Kinase assay of PI3Kγ (solid-phase lipid kinase assay). It counts as biochemical. The conditions noted are these: in vitro PI3K-γ inhibitory activity, class symbols; read-out: in vitro PI3K-gamma.

T1 sequence (P48736 whole entry, the tested form may be a part): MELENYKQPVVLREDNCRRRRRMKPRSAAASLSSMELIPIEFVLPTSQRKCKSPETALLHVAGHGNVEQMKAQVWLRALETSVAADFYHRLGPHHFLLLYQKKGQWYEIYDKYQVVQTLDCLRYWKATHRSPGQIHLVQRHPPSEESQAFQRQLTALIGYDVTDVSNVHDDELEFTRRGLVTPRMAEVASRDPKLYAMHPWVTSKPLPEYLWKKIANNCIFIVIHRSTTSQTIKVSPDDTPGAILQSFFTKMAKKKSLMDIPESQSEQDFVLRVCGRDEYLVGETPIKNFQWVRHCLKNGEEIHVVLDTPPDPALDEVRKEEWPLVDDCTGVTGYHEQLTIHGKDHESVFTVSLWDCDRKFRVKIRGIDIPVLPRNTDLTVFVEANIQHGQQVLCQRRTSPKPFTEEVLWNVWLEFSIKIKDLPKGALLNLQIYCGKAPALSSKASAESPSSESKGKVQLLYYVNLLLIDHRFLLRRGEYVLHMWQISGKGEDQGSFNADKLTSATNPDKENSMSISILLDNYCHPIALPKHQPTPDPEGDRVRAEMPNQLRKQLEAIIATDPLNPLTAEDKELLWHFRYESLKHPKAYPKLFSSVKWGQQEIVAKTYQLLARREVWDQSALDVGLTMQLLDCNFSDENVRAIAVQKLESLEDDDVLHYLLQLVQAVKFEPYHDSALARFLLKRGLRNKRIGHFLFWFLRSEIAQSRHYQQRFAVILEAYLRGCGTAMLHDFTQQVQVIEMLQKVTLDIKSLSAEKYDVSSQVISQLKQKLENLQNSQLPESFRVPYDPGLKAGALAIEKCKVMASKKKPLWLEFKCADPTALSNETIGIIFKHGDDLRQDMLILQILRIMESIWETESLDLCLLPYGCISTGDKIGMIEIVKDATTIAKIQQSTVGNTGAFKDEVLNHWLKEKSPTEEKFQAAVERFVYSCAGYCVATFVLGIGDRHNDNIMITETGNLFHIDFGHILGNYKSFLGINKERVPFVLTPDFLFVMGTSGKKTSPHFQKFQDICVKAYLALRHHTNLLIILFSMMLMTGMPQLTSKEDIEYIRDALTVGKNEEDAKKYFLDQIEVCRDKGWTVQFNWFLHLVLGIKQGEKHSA

For `Cl.O=C(NC1=Nc2cc(C(F)(F)F)ccc2C2=NCCN12)c1cncc(O)c1` [Example 2-35], the melting point was 237 °C (dec.). The IC50 in data set [1] is under 100 nM.
The compound `O=C(NC1=Nc2cc(C(F)(F)F)ccc2C2=NCCN12)c1ccc2[nH]cnc2c1` [Example 2-36] gave a melting point of over 300 °C. Also, in data set [1], the IC50 lay in the range of 100 to 500 nM.
On the same counts, the results for `Cl.O=C(NC1=Nc2cc(C(F)(F)F)ccc2C2=NCCN12)c1ccc2[nH]cnc2c1` [Example 2-37] are 288 °C and under 100 nM.
For `Cl.O=C(NC1=Nc2cc(Cl)ccc2C2=NCCN12)c1cccnc1` [Example 2-38], in that order: 308 °C and 100 to 500 nM.
For `O=C(NC1=Nc2cc(Cl)ccc2C2=NCCN12)c1ccc2[nH]cnc2c1` [Example 2-39], in that order: 288 °C and under 100 nM.
In turn, `Cl.O=C(NC1=Nc2cc(Cl)ccc2C2=NCCN12)c1cccs1` [Example 2-41] displayed a melting point of 328 °C. Moreover, the IC50 in data set [1] lay within 100 to 500 nM.
For `Cl.O=C(NC1=Nc2cc(Br)ccc2C2=NCCN12)c1cccnc1` [Example 2-42], in that order: 243 °C and under 100 nM.
For `Cc1ncccc1C(=O)NC1=Nc2cc(Br)ccc2C2=NCCN12.Cl` [Example 2-43], in that order: 252 °C (dec.) and 100 to 500 nM.
On the same counts, the results for `O=C(NC1=Nc2cc(Br)ccc2C2=NCCN12)c1ccc2[nH]cnc2c1` [Example 2-44] are 262 °C and 100 to 500 nM.
In the case of `Cl.O=C(NC1=Nc2cc(Br)ccc2C2=NCCN12)c1ccc2[nH]cnc2c1` [Example 2-45], the melting point was found to be 278 °C. In addition, in data set [1], the IC50 was under 100 nM.
For `COc1ccc2c(c1OC)N=C(NC(=O)c1ccc(NC(C)=O)nc1)N1CCN=C21` [Example 2-48], in that order: 306 to 307 °C and under 100 nM.
In the case of `COc1ccc2c(c1OC)N=C(NC(=O)c1ccc3[nH]cnc3c1)N1CCN=C21` [Example 2-49], the melting point was 289 °C (dec.). Besides, the IC50 in data set [1] is under 100 nM.
On the same counts, the results for `COc1ccc2c(c1OC)N=C(NC(=O)c1cnc3[nH]cnc3c1)N1CCN=C21` [Example 2-51] are 233 °C (dec.) and under 100 nM.
On the same counts, the results for `COc1cc2c(cc1OC)C1=NCCN1C(NC(=O)c1cncc(O)c1)=N2` [Example 2-54] are 287 °C (dec.) and under 100 nM.
Turning to `COc1cc2c(cc1OC)C1=NCCN1C(NC(=O)c1ccc(N)nc1)=N2.Cl` [Example 2-56], the melting point turned out to be 256 °C. In addition, the IC50 in data set [1] lay in the range of 100 to 500 nM.
On to `COc1cc2c(cc1OC)C1=NCCN1C(NC(=O)c1ccc(NC(C)=O)nc1)=N2` [Example 2-57], for which the melting point was 224 °C. The IC50 in data set [1] was 100 to 500 nM.
For `COc1cc2c(cc1OC)C1=NCCN1C(NC(=O)c1cncc(C)c1)=N2.Cl` [Example 2-59], in that order: 257 °C (dec.) and 100 to 500 nM.
On the same counts, the results for `COc1cc2c(cc1OC)C1=NCCN1C(NC(=O)c1ccc3[nH]cnc3c1)=N2` [Example 2-60] are 246 °C and under 100 nM.
For `COc1cc2c(cc1OC)C1=NCCN1C(NC(=O)c1cccs1)=N2` [Example 2-62], in that order: 248 °C and 100 to 500 nM.
For the compound `COc1cc2c(cc1OC)C1=NCCN1C(NC(=O)c1cn[nH]c1)=N2.Cl` [Example 2-63], the melting point was 270 °C (dec.). Further, in data set [1], the IC50 fell in the range of 100 to 500 nM.
For `COc1cc2c(cc1OC)C1=NCCN1C(NC(=O)c1cc(C)nn1C)=N2` [Example 2-64], in that order: 236 to 237 °C and 100 to 500 nM.
For `COc1ccc2c(c1Br)N=C(NC(=O)c1cccnc1)N1CCN=C21` [Example 2-65], in that order: 264 °C and under 100 nM.
On the same counts, the results for `COc1cc2c(cc1Br)C1=NCCN1C(NC(=O)c1cccnc1)=N2.Cl` [Example 2-67] are 289 °C (dec.) and 100 to 500 nM.
Turning to `COc1cc(OC)c2c(c1)C1=NCCN1C(NC(=O)c1cccnc1)=N2` [Example 2-68], the melting point is 228 °C (dec.). The IC50 in data set [1] is under 100 nM.
On the same counts, the results for `COc1cc(OC)c2c(c1)C1=NCCN1C(NC(=O)c1cccnc1)=N2.Cl` [Example 2-69] are 275 °C (dec.) and 100 to 500 nM.
On the same counts, the results for `COc1cc(OC)c2c(c1)C1=NCCN1C(NC(=O)c1ccc(NC(C)=O)nc1)=N2` [Example 2-70] are 286 °C (dec.) and 100 to 500 nM.
On the same counts, the results for `COc1cc(OC)c2c(c1)C1=NCCN1C(NC(=O)c1ccc3[nH]cnc3c1)=N2` [Example 2-72] are 210 °C (dec.) and under 100 nM.
Compound `Cc1cc(Br)c2c(c1)C1=NCCN1C(NC(=O)c1cccnc1)=N2.Cl` [Example 2-74] displayed a melting point of 220 °C. Moreover, the IC50 in data set [1] is under 100 nM.
On the same counts, the results for `Cc1cc(Br)c2c(c1)C1=NCCN1C(NC(=O)c1ccc3[nH]cnc3c1)=N2` [Example 2-75] are over 290 °C and 100 to 500 nM.
On the same counts, the results for `COc1cc2c(c(OC)c1C)N=C(NC(=O)c1cccnc1)N1CCN=C21.Cl` [Example 2-76] are 235 °C (dec.) and 100 to 500 nM.
Consider `COc1cc2c(c(OC)c1C)N=C(NC(=O)c1cccnc1C)N1CCN=C21` [Example 2-77], for which the melting point was 210 °C (dec.). Besides, in data set [1], the IC50 is under 100 nM.
For `COc1cc2c(c(OC)c1C)N=C(NC(=O)c1ccc(NC(C)=O)nc1)N1CCN=C21` [Example 2-79], in that order: over 310 °C and 100 to 500 nM.
For `COc1cc2c(c(OC)c1C)N=C(NC(=O)c1ccc(NC(C)=O)nc1)N1CCN=C21.Cl` [Example 2-80], in that order: 305 °C (dec.) and under 100 nM.
In turn, `COc1cc2c(c(OC)c1C)N=C(NC(=O)c1ccc3[nH]cnc3c1)N1CCN=C21` [Example 2-81] gave a melting point of 202 °C. The IC50 in data set [1] fell in the range of 100 to 500 nM.
On the same counts, the results for `Cl.O=C(NC1=Nc2ccc(F)cc2C2=NCCN12)c1ccc2[nH]cnc2c1` [Example 2-83] are over 300 °C and 100 to 500 nM.
Take `O=C(NC1=Nc2ccc(Cl)cc2C2=NCCN12)c1cccnc1` [Example 2-84]: the melting point turned out to be 210 °C. In data set [1], the IC50 fell in the range of 100 to 500 nM.
On the same counts, the results for `Cl.O=C(NC1=Nc2ccc(Cl)cc2C2=NCCN12)c1ccc2[nH]cnc2c1` [Example 2-86] are 305 °C (dec.) and 100 to 500 nM.
On the same counts, the results for `O=C(NC1=Nc2ccc(Br)cc2C2=NCCN12)c1cccnc1` [Example 2-87] are 228 °C and 100 to 500 nM.
For `Cl.O=C(NC1=Nc2ccc(Br)cc2C2=NCCN12)c1ccc2[nH]cnc2c1` [Example 2-89], in that order: 288 °C and 100 to 500 nM.
With `Cc1ccc2c(c1)C1=NCCN1C(NC(=O)c1cccnc1)=N2` [Example 2-90], the melting point turned out to be 210 °C. Further, in data set [1], the IC50 was under 100 nM.
As for `Cc1ccc2c(c1)C1=NCCN1C(NC(=O)c1cccnc1)=N2.Cl` [Example 2-91], the melting point was over 290 °C. For the same compound, the IC50 in data set [1] lay in the range of 100 to 500 nM.
On the same counts, the results for `Cc1ccc2c(c1)C1=NCCN1C(NC(=O)c1ccc3[nH]cnc3c1)=N2.Cl` [Example 2-92] are over 290 °C and under 100 nM.
For `COc1ccc2c(c1)C1=NCCN1C(NC(=O)c1cccnc1)=N2.Cl` [Example 2-93], in that order: over 300 °C and 100 to 500 nM.
`COc1ccc2c(c1)C1=NCCN1C(NC(=O)c1ccc3[nH]cnc3c1)=N2.Cl` [Example 2-94] gave a melting point of 288 °C. Besides, in data set [1], the IC50 is under 100 nM.
For `C=Cc1ccc2c(c1)C1=NCCN1C(NC(=O)c1cccnc1)=N2` [Example 2-95], in that order: 196 to 198 °C and 100 to 500 nM.
The compound `Cl.O=C(NC1=Nc2ccc(-c3ccco3)cc2C2=NCCN12)c1cccnc1` [Example 2-97] yielded a melting point of 298 to 299 °C. In data set [1], the IC50 is 100 to 500 nM.
On the same counts, the results for `Cl.O=C(NC1=Nc2cccc(Cl)c2C2=NCCN12)c1cccnc1` [Example 2-98] are 249 °C and 100 to 500 nM.
On the same counts, the results for `O=C(NC1=Nc2c(F)cccc2C2=NCCN12)c1cccnc1` [Example 2-99] are 243 °C and 100 to 500 nM.
On the same counts, the results for `Cl.O=C(NC1=Nc2c(F)cccc2C2=NCCN12)c1cccnc1` [Example 2-100] are 288 °C and under 100 nM.
In turn, `O=C(NC1=Nc2c(F)cccc2C2=NCCN12)c1ccc2[nH]cnc2c1` [Example 2-101] registered a melting point of over 300 °C. In addition, in data set [1], the IC50 is under 100 nM.
On the same counts, the results for `Cl.O=C(NC1=Nc2c(Cl)cccc2C2=NCCN12)c1cccnc1` [Example 2-103] are over 280 °C and 100 to 500 nM.
The compound `CC(=O)Nc1ccc(C(=O)NC2=Nc3c(Cl)cccc3C3=NCCN23)cn1` [Example 2-104] registered a melting point of over 280 °C. For the same compound, the IC50 in data set [1] is 100 to 500 nM.
For `CC(=O)Nc1ccc(C(=O)NC2=Nc3c(Cl)cccc3C3=NCCN23)cn1.Cl` [Example 2-105], in that order: over 280 °C and under 100 nM.
On the same counts, the results for `Cl.O=C(NC1=Nc2c(Cl)cccc2C2=NCCN12)c1ccc2[nH]cnc2c1` [Example 2-106] are over 280 °C and 100 to 500 nM.
On the same counts, the results for `Cc1cccc2c1N=C(NC(=O)c1cccnc1)N1CCN=C21` [Example 2-107] are 244 °C and 100 to 500 nM.
